Measurements: patent publication US12605376B2, “Methods of treating relapsing multiple sclerosis using an inhibitor of Bruton's tyrosine kinase” (Genentech, Inc., priority 2020, dated 2026)
Where two headings read alike, the source gives them in different places. Marks after values point to notes of the source that are not given here.

Assays:
[1] = system: cells of myeloid progenitor lineage (basophils); assay: Inhibition of myeloid lineage progenitor cell activation (FcR signaling, basophils); assay type: cell-based; conditions: (±SEM)
[2] = system: B cells; assay: Inhibition of B cell activation (B-cell receptor signalling); assay type: cell-based; conditions: (±SEM)
[3] = system: basophils (CD63); conditions: basophil activation, human whole blood, literature values, cited from earlier work
[4] = system: panel of over 200 human kinases; assay: Kinase selectivity screen in a panel of over 200 human kinases; assay type: biochemical; conditions: for # off-target kinases >50% INH/# total kinases tested @ 1 μM: unpublished
[5] = system: panel of over 200 human kinases; conditions: Crawford, et al., cited from earlier work
[6] = system: B cells (CD69); conditions: B cell activation, human whole blood, literature values, cited from earlier work
[7] = without specific elimination procedures; cited from earlier work
[8] = Safety analysis of previous fenebrutinib clinical trials in RA, SLE and CSU
[9] = patients with autoimmune conditions

For `C=CC(=O)N1CCC(CNc2ncnc(N)c2-c2ccc(Oc3ccccc3)cc2)CC1` [Evobrutinib], the EC50 [1] was 171 nM, the EC90 [1] was 3100 nM and the EC50 [2] was 161 nM. For the same compound, the EC90 [2] was 524 nM, the IC50 [3] was 1660 nM and the “off-target kinases inhibited by >50% / kinases tested at 10 μM” value ([4]; 10 μM) was 18/218. The “# off-target kinases >50% INH/# total kinases tested @ 1 μM” value ([5]; J Med Chem 2018, listed as EVO) was 3/221, the “# off-target kinases >50% INH/# total kinases tested @ 1 μM” value ([5]; J Med Chem 2018) was 3/221 ^a and the IC50 [6] was 84 nM.

In the case of `C/C(O)=C(\C#N)C(=O)Nc1ccc(C(F)(F)F)cc1` [teriflunomide], the “time to lower plasma teriflunomide concentrations to 0.02 mg/L” value [7] is given as “up to 2 years”.

Compound `C[C@H]1CN(C2COC2)CCN1c1ccc(Nc2cc(-c3ccnc(N4CCn5c(cc6c5CC(C)(C)C6)C4=O)c3CO)cn(C)c2=O)nc1` [Fenebrutinib, (S)-2-(3′-(hydroxymethyl)-1-methyl-5-((5-(2-methyl-4-(oxetan-3-yl)piperazin-1-yl)pyridin-2-yl)amino)-6-oxo-1,6-dihydro-[3,4′-bipyridin]-2′-yl)-7,7-dimethyl-2,3,4,6,7,8-hexahydro-1H-cyclopenta[4,5]pyrrolo[1,2-a]pyrazin-1-one] has an EC50 [1] of 15 nM, an EC90 [1] of 62 nM and an EC50 [2] of 8 nM. The EC90 [2] was 65 nM, the IC50 [3] was 30.7 nM and the IC50 ([3]; listed as FEN) was 31 nM. For the same compound, the “# off-target kinases >50% INH/# total kinases tested @ 1 μM” value ([5]; J Med Chem 2018, listed as FEN) was 3/286, the “# off-target kinases >50% INH/# total kinases tested @ 1 μM” value ([5]; J Med Chem 2018) was 2/286 ^a and the IC50 [6] was 8.4 nM. The IC50 ([6]; listed as FEN) was 8 nM, the “Headache, investigator-reported events” value ([8]; 200 mg twice daily, n = 299) was 16 (5.4%) patients (%) and the “Nasopharyngitis, investigator-reported events” value ([8]; 200 mg twice daily, n = 299) was 18 (6.0%) patients (%). For the same compound, the “Nausea, investigator-reported events” value ([8]; 200 mg twice daily, n = 299) was 17 (5.7%) patients (%), the “Number of patients with AE leading to treatment withdrawal” value ([8]; 200 mg twice daily, n = 299) was 32 (10.7%) patients (%) and the “Number of patients with Serious AE” value ([8]; 200 mg twice daily, n = 299) was 18 (6.0%) patients (%). For the same compound, the “Number of patients with Serious AE related to blinded fenebrutinib” value ([8]; 200 mg twice daily, n = 299) was 6 (2.0%) patients (%), the “Number of patients with Study withdrawal due to AE” value ([8]; 200 mg twice daily, n = 299) was 17 (5.7%) patients (%) and the “Total adverse events (AEs)” value ([8]; 200 mg twice daily, n = 299, RA/SLE/CSU trials) was 507. The “Number of patients with Fatal AE” value ([8]; 200 mg twice daily, n = 299, death deemed unrelated to fenebrutinib) was 1 (0.3%) patients (%), the “Percent of patients with infection adverse events” value (from here on “Percent of patients”) ([8]; CSU, 200 mg, n = 52, median follow-up 56 days) was 32.7% (n = 52) and the “Percent of patients” value ([8]; RA cohort 1, 200 mg, n = 110, median follow-up 84 days) was 10.9% (n = 110). For the same compound, the “Percent of patients” value ([8]; RA cohort 2, 200 mg, n = 49, median follow-up 84 days) was 6.1% (n = 49), the “Percent of patients” value ([8]; SLE, 200 mg, n = 88, median follow-up 336 days) was 46.6% (n = 88) and the “infection rates in fenebrutinib arms compared to placebo” value ([8]; background immunosuppressant therapy in RA and SLE) was “no imbalance of infection rates”. For the same compound, the “patients with serious infections” value ([8]; combined fenebrutinib arms) was 2.0%, the “bleeding or bruising, patients” value ([8]; fenebrutinib arms) was 7.7% and the “Hy's law cases” value [8, 9] was “no Hy's law cases”. For the same compound, the “risk causally associated with fenebrutinib (liver aminotransferase elevations)” value [8, 9] was “Asymptomatic and reversible liver aminotransferase elevations were the only risk causally associated with fenebrutinib” and the “atrial fibrillations, flutters, or other supraventricular tachyarrhythmias” value ([8]; randomized clinical trial patients) was “No fenebrutinib randomized clinical trial patients had atrial fibrillations, flutters, or other supraventricular tachyarrhythmias”.

For `C=CC(=O)N1CCC[C@@H](n2c(=O)n(-c3ccc(Oc4ccccc4)cc3)c3c(N)nccc32)C1` [Tolebrutinib], the EC50 [1] was 80 nM, the EC90 [1] was 281 nM and the EC50 [2] was 26 nM. The EC90 [2] was 84 nM, the IC50 [3] was 166 nM and the “# off-target kinases >50% INH/# total kinases tested @ 1 μM” value [4] was 19/218 ^d. For the same compound, the “# off-target kinases >50% INH/# total kinases tested @ 1 μM” value ([4]; listed as TOL) was 19/218 and the IC50 [6] was 10 nM.
